The text below walks through data of patent US20230416331A1, “PEPTIDE CONJUGATES OF PEPTIDIC TUBULIN INHIBITORS AS THERAPEUTICS” (priority 2021, published 2023).

The structures appear in SMILES notation. pIC50: −log10 of the molar value. Where a SMILES comes first, the peptide text is derived from it. [ ]: non-standard residue; d: D form. The star is where a group is joined. Dolaproine = CO[C@@H]([C@@H]1CCCN1)[C@@H](C)C(=O)O; Dil = CC[C@H](C)[C@H](NC)[C@@H](CC(=O)O)OC; X1 = C[C@@H](N*)[C@@H](O)c1ccccc1; NMeV = CN[C@H](C(=O)O)C(C)C

In one data set the test system is HCT116 cells. Description: In vitro cell cycle arrest functional assay (propidium iodide, flow cytometry). The data set is classed as cell-based. As to conditions: Homo sapiens, HCT-116, 24 h incubation, read-out: IC50 of dose responsive accumulation in G2/M. The method, then: Cell Incubation with MMAE and Compound 2 and Staining with Propidium Iodide
HCT116 cells were seeded in 6-well tissue culture plates at 500,000 cells per well in 2 mL of DMEM and incubated overnight in a 37° C., 5% CO2 incubator. 200 μL of dilutions of MMAE and Compound 2 which were made at 10× concentrations in DMEM+4% DMSO were added to appropriate wells of the 6-well plates and plates were incubated for 24 hours. After exposure of HCT116 cells to either MMAE or Compound 2, cells were harvested for propidium iodide staining and flow cytometry. Media was collected from each well and transferred into conical 15 mL centrifuge tubes to collect nonadherent cells. PBS (1 mL) was added to wash wells and was then transferred to the 15 mL tubes. Tryp-LE (1 mL) was added to each well and plates were incubated for 5 minutes in a 37° C., 5% CO2 incubator until the cells lifted off the well surface. A solution of DMEM+10% fetal bovine serum (1 mL) was added to each well. Wells were triturated and cells transferred to tubes. […] Cell counts and viability for each sample was assessed by trypan blue exclusion on a Bio-Rad TC20 cell counter. […]
An aliquot (1 mL) of each cell suspension was transferred into a deep-well polypropylene plate. […] Propidium iodide-stained cells were analyzed using a BD Acuri flow cytometer.

Data set [1] can be described thus: Tissue pharmacokinetics of Compound 2 in a mouse model (MMAE in tumor, muscle, bone marrow). Format: in vivo, athymic nude mice bearing HCT116 tumors. Particulars: single IP 0.5 mg/kg MMAE or 3 mg/kg Compound 2; 4, 24, 48 h; LCMS. The method, then: When xenografts reached a minimal volume of 300 mm^3, mice were administered a single intraperitoneal injection of 0.5 mg/kg MMAE or 3 mg/kg Compound 2 prepared in a vehicle of 5% mannitol in citrate. Tumor, quadriceps muscle and bone marrow samples were collected from fed, anesthetized mice at 4, 24 and 48 hours after compound administration. MMAE concentrations in tissues were determined via LCMS.
A 75 μL volume of acetonitrile:formic acid (1000:1, v:v) containing internal standard (MMAE-D8) to the wells of a 96-well protein precipitation plate resting on top of a 0.700 mL 96-well LoBind polypropylene plate. Double blank and carryover sample wells received 75 μL of acetonitrile:formic acid (1000:1, v:v) without internal standard. A 25 μL volume of each matrix sample was added to the plate wells containing internal standard. Fortified samples were vortexed at 700 rpm for 1 minute and centrifuged at 3000 rpm for 2 minutes at 4° C. The protein precipitation plate was discarded. A 50 μL volume of mobile phase A (acetonitrile:water:200 mM ammonium formate (90:5:5, v:v:v)) was added to the 96-well polypropylene collection plate which was covered with a silicone cap mat. Final samples were vortexed at 700 rpm for 2 minutes and analysis was accomplished by injecting a 2 μL sample onto an LC-MS/MS system. […]

Data set [2] deals with HCT116 HER2 negative colorectal flank tumors. Briefly: Efficacy in a HCT116 colorectal xenograft model (Example E). As to conditions: IP QDx2. Format: in vivo, nude mice. The method, then:
Mice were administered intraperitoneal (IP) doses of vehicle, 0.25 mg/kg MMAE or 40 mg/kg Compound 1 (equivalent 7 mg/kg unconjugated MMAE).

Data set [3] has as its system HCT116 colorectal cancer flank tumors. Description: Efficacy of Compound 5 in a HCT116 colorectal xenograft model (Example N). Format: in vivo, nude mice. Particulars: 1, 5 and 10 mg/kg IP QDx4. The method, then:
Mice were administered intraperitoneal (IP) doses of vehicle, 1, 5, or 10 mg/kg Compound 5.

In the case of `CC[C@H](C)[C@@H]([C@@H](CC(=O)N1CCC[C@H]1[C@H](OC)[C@@H](C)C(=O)N[C@H](C)[C@@H](O)c1ccccc1)OC)N(C)C(=O)[C@@H](NC(=O)[C@@H](NC)C(C)C)C(C)C` [MMAE, monomethyl auristatin E] (H-[NMeV]V[Dil][Dolaproine]-X1), in the data set on HCT116 cells, the pIC50 is 8.59. Moreover, in data set [1], the “distribution of unconjugated MMAE to tumor, muscle and bone marrow” value is listed as “indiscriminate distribution of MMAE across all tissues”. The “animals removed from the study by day” value in data set [2] (0.25 mg/kg MMAE) was at most 6 days. The “change in body weight” value in data set [2] (0.25 mg/kg MMAE or 40 mg/kg Compound 1 (7 mg/kg MMAE equivalent)) is recorded as “rapid decline in body weight”.
As to `CC[C@H](C)[C@@H]([C@@H](CC(=O)N1CCC[C@H]1[C@H](OC)[C@@H](C)C(=O)N[C@H](C)[C@@H](O)c1ccccc1)OC)N(C)C(=O)[C@@H](NC(=O)[C@H](C(C)C)N(C)C(=O)OCc1ccc(NC(=O)O[C@H]2CCCC[C@@H]2SSC[C@H](NC(=O)[C@H](Cc2c[nH]c3ccccc23)NC(=O)[C@H](CC(C)C)NC(=O)[C@H](CC(C)C)NC(=O)[C@H](CC(=O)O)NC(=O)[C@H](CC(C)C)NC(=O)[C@H](CC(C)C)NC(=O)[C@H](CC(C)C)NC(=O)[C@@H](NC(=O)[C@H](CC(=O)O)NC(=O)[C@@H](NC(=O)[C@@H]2CCCN2C(=O)[C@H](Cc2ccccc2)NC(=O)[C@H](CC(C)C)NC(=O)[C@H](CC(C)C)NC(=O)[C@H](CC(=O)O)NC(=O)[C@H](CC(C)C)NC(=O)[C@H](Cc2ccc(O)cc2)NC(=O)[C@H](C)NC(=O)[C@H](CCCNC(=N)N)NC(=O)[C@H](Cc2c[nH]c3ccccc23)NC(=O)[C@@H]2CCCN2C(=O)[C@H](CC(N)=O)NC(=O)[C@H](CCC(N)=O)NC(=O)[C@H](CC(=O)O)NC(=O)[C@H](CC(=O)O)NC(=O)[C@H](C)N)[C@@H](C)O)[C@@H](C)O)C(=O)NCC(N)=O)cc1)C(C)C` [Compound 5], the “efficacy (mean tumor volume)” value in data set [3] was “dose responsive efficacy”.
